According to patent US20250282802A1, “P[…] AND METHODS” (priority 2020, published 2025):
Like-named read-outs stand apart in the source and are kept apart here.

Assays:
[1] = system: A-172 (human glioma cancer); experiment: Cell culture cytotoxicity screening (Alamar Blue), A-172; format: cell-based
Protocol: (§1) FIG. 8. Cytotoxicity of pantaphos across various cancer cell lines. Assays were conducted as described (mBio. 2021 Feb. 2; 12(1):e03402-20), using the Alamar Blue method with 72-hour treatment using Raptinal ([…]) as Dead cell control; n=3. Cell seeding densities: CT26 (colon carcinoma) 2000 c/w; HOS (osteosarcoma) 2500 c/w; ES-2 (ovarian carcinoma), HCT-116 (colorectal carcinoma), A-549 (lung carcinoma), A-172 (glioblastoma), D54 (glioblastoma), U87 (glioblastoma), T98G (glioblastoma), SK-ML-28 (melanoma), MCF-7 (breast cancer), AM38 (glioblastoma) and MDA-MB-231 (breast cancer) 3000 c/w; U118MG (malignant glioma) 4000 c/w; HepG2 (liver cancer) 8000 c/w. c/w=cells per well. IC50 and Emax values shown in Table 6 were extracted from the raw data plotted in FIG. 8.
(§2) Cell culture cytotoxicity screening. The compounds were evaluated for their ability to kill cancer cell lines in culture, using HOS (osteosarcoma); ES-2 (ovarian cancer); HCT 116 (colon cancer); A549 (lung carcinoma); and A172 (glioma) cells. Human skin fibroblast cells (HFF-1) were also assessed. Cells were seeded (3000 cells well^−1 for ES-2, HCT 116, A549 and A172; 4000 cells well^−1 for HFF-1 and 2500 cells well^−1 for HOS) in a 96-well plate and allowed to attach overnight. Cells were treated with pantaphos in water. The concentrations of the tested compounds were 5 nM to 100 μM (1% water final; 100 μl well^−1). Raptinal (50 μM) was used as a dead control. On each plate, five technical replicates per compound were performed. 72 hours post-treatment, cell viability was assessed using the Alamar Blue method (http://www.bio-rad-antibodies.com/measuring-cytotoxicity-proliferation-spectrophotometry-fluorescence-alamarBlue.html). Alamar Blue solution (10 μl of 440 μM resazurin in sterile 1×PBS) was added to each well, and the plate was incubated for 3-4 hrs. Conversion of Alamar Blue was measured with a plate reader (SpectraMax M3; Molecular Devices) by fluorescence (excitation wavelength: 555 nm; emission wavelength: 585 nm; cutoff 570 nm; autogain). Percentage death was determined by normalizing to water-treated cells and Raptinal-treated cells. For IC50 determination, the data were plotted as compound concentration versus dead cell percentage and fitted to a logistic-dose-response curve using OriginPro 2019 (OriginLab). The data were generated in triplicate, and IC50 values are reported as the average of three separate experiments along with SEM values.

CT26 (colon carcinoma) = experiment: Cytotoxicity profiling (Alamar Blue), CT26; format: cell-based
Protocol: as §1
as §2, with “Alamar Blue solution (10 μl of 440 μM resazurin in sterile 1×PBS) was added to each well, and the plate was incubated for 3-4 hrs.” left out, “For IC50 determination, the data were plotted as compound concentration versus dead cell percentage and fitted to a logistic-dose-response curve using OriginPro 2019 (OriginLab). The data were generated in triplicate, and IC50 values are reported as the average of three separate experiments along with SEM values.” left out

U87 (glioblastoma) = experiment: Cytotoxicity profiling (Alamar Blue), U87; format: cell-based; settings: Homo sapiens, 72-hour treatment
Protocol: as §1, with “IC50 and Emax values shown in Table 6 were extracted from the raw data plotted in FIG. 8.” left out
(§3) Cell culture cytotoxicity screening. The compounds were evaluated for their ability to kill cancer cell lines in culture, using HOS (osteosarcoma); ES-2 (ovarian cancer); HCT 116 (colon cancer); A549 (lung carcinoma); and A172 (glioma) cells. Human skin fibroblast cells (HFF-1) were also assessed. […] 72 hours post-treatment, cell viability was assessed using the Alamar Blue method (http://www.bio-rad-antibodies.com/measuring-cytotoxicity-proliferation-spectrophotometry-fluorescence-alamarBlue.html). […] Conversion of Alamar Blue was measured with a plate reader (SpectraMax M3; Molecular Devices) by fluorescence (excitation wavelength: 555 nm; emission wavelength: 585 nm; cutoff 570 nm; autogain). […]

HepG2 (liver cancer) = experiment: Cytotoxicity profiling (Alamar Blue), HepG2; format: cell-based, human
Protocol: as §1
as §2, with “Alamar Blue solution (10 μl of 440 μM resazurin in sterile 1×PBS) was added to each well, and the plate was incubated for 3-4 hrs.” left out, “For IC50 determination, the data were plotted as compound concentration versus dead cell percentage and fitted to a logistic-dose-response curve using OriginPro 2019 (OriginLab). The data were generated in triplicate, and IC50 values are reported as the average of three separate experiments along with SEM values.” left out

[2] = system: Escherichia coli ATCC 25922; experiment: Antibacterial bioassay (MIC), Escherichia coli ATCC 25922; format: cell-based; settings: CLSI
Protocol: (§4) Antibacterial bioassays. Susceptibility testing for the ESKAPE pathogens and Salmonella enterica LT2 was performed using a Kirby-Bauer method as outlined by the Clinical and Laboratory Standards Institute (CLSI). For rich media bioassays, Mueller Hinton Broth 2 (MH-2, Sigma-Aldrich, 90922) was used for all strains except 1% BHI was supplemented for Enterococcus faecalis ATCC 19433. For minimal media bioassays, glucose-MOPS minimal medium was used. Briefly, overnight bacterial cultures were sub-cultured and inoculated into 5 mL top agar (0.7% agar) for final concentration of 5×10^5 CFU/mL. Then, 20 μL of a compound 2-fold dilution series (200, 100, 50, 25, 12.5, 6.25 μM in water) was spotted on 6 mm diameter blank paper discs (BD BBL™ 231039). Control discs received 20 μL of 50 mg/mL kanamycin. Plates were incubated at 35° C. for 20-24 hours. […] Sensitivity of the IPTG-inducible phosphonate uptake strain WM6242 to pantaphos was tested using a disk diffusion assay. Plates containing growth medium were overlayed with 5 mL of top agar (0.7% agar) inoculated with 100 μL (OD600=0.8) of the phosphonate-specific E. coli indicator strain (WM6242) with or without addition of 1 mM IPTG. WM6242 is engineered with an IPTG-inducible, non-specific phosphonate uptake system (phnCDE). […]

HOS (human osteosarcoma) = experiment: Cell culture cytotoxicity screening (Alamar Blue), HOS; format: cell-based; settings: 72 hours
Protocol: as §1, with “IC50 and Emax values shown in Table 6 were extracted from the raw data plotted in FIG. 8.” left out
as §3

Salmonella enterica LT2 = experiment: Antibacterial bioassay (MIC), Salmonella enterica; format: cell-based; settings: CLSI
Protocol: as §4

Escherichia coli WM6242 = experiment: Disk diffusion assay with phosphonate-specific bioassay strain E. coli WM6242; format: cell-based
Protocol: Antibacterial bioassays. Susceptibility testing for the ESKAPE pathogens and Salmonella enterica LT2 was performed using a Kirby-Bauer method as outlined by the Clinical and Laboratory Standards Institute (CLSI). For rich media bioassays, Mueller Hinton Broth 2 (MH-2, Sigma-Aldrich, 90922) was used for all strains except 1% BHI was supplemented for Enterococcus faecalis ATCC 19433. For minimal media bioassays, glucose-MOPS minimal medium was used. Briefly, overnight bacterial cultures were sub-cultured and inoculated into 5 mL top agar (0.7% agar) for final concentration of 5×10^5 CFU/mL. Then, 20 μL of a compound 2-fold dilution series (200, 100, 50, 25, 12.5, 6.25 μM in water) was spotted on 6 mm diameter blank paper discs (BD BBL™ 231039). Control discs received 20 μL of 50 mg/mL kanamycin. Plates were incubated at 35° C. for 20-24 hours. […] Sensitivity of the IPTG-inducible phosphonate uptake strain WM6242 to pantaphos was tested using a disk diffusion assay. Plates containing growth medium were overlayed with 5 mL of top agar (0.7% agar) inoculated with 100 μL (OD600=0.8) of the phosphonate-specific E. coli indicator strain (WM6242) with or without addition of 1 mM IPTG. WM6242 is engineered with an IPTG-inducible, non-specific phosphonate uptake system (phnCDE). After the seeded overlay solidified, 6 mm paper disks were spotted with 10 μL of a dilution series (200, 100, 50, 25, 12.5, 6.25 μM in water) of pantaphos and applied to the plates that were then incubated at 37° C. for 24 hours. Phosphonate-specific activity was queried by comparing sensitivity to that of 200 μM kanamycin and 200 μM fosfomycin.

O=C(O)/C=C(\C(=O)O)C(O)P(=O)(O)O (stereo not shown) [pantaphos, 2-(hydroxy(phosphono)methyl)maleate]
IC50 ([1]; A 172, 72 h, A-172, Alamar Blue, 72-hour treatment (Table 6)): 1.01 ± 0.06 µM
IC50 ([1]; A 172, 72 h, A-172, Alamar Blue, 72 hours): 1 µM
IC50 ([1]; A 172, A-172 (text of Example 5)): 1 µM
Emax ([1]; A-172, Alamar Blue, 72 hours, read-out: Emax = percentage cell death (converted)): 99%
sensitivity of the cell line to the compound, in words (CT26 (colon carcinoma); CT26): sensitive
IC50 (CT26 (colon carcinoma); CT26, Alamar Blue, 72-hour treatment (Table 6)): 3.38 ± 0.09 µM
Emax (CT26 (colon carcinoma); Mus musculus, CT26, Alamar Blue, 72-hour treatment): 81 to 92%
Emax (U87 (glioblastoma)): 38 to 48%
sensitivity of the cell line to the compound, in words (HepG2 (liver cancer); HepG2): sensitive
Emax (HepG2 (liver cancer); Homo sapiens, HepG2, Alamar Blue, 72-hour treatment): 71 to 77%
IC50 (HepG2 (liver cancer); Homo sapiens, HepG2, Alamar Blue, 72-hour treatment (Table 6)): 4.22 ± 0.57 µM
MIC ([2]; ATCC25922, Mueller-Hinton 2 medium, read-out: MIC, Rich medium): > 200 µM
MIC ([2]; ATCC25922, glucose-MOPS minimal medium, read-out: MIC, Minimal medium): > 200 µM
IC50 (HOS (human osteosarcoma)): 37 ± 6.28 µM
Emax (HOS (human osteosarcoma); read-out: Emax = percentage cell death (converted)): 58%
MIC (Salmonella enterica LT2; Mueller-Hinton 2 medium, read-out: MIC, Rich medium): > 200 µM
MIC (Salmonella enterica LT2; glucose-MOPS minimal medium, read-out: MIC, Minimal medium): > 200 µM
MIC (Escherichia coli WM6242; +IPTG, Mueller-Hinton 2 medium, read-out: MIC, Rich medium): >200 µM
MIC (Escherichia coli WM6242; +IPTG, glucose-MOPS minimal medium, read-out: MIC, Minimal medium): >200 µM
MIC (Escherichia coli WM6242; Escherichia coli, WM6242, −IPTG, Mueller-Hinton 2 medium, read-out: MIC, Rich medium): > 200 µM
MIC (Escherichia coli WM6242; Escherichia coli, WM6242, −IPTG, glucose-MOPS minimal medium, read-out: MIC, Minimal medium): > 200 µM
sensitivity of the strain to pantaphos, in words (Escherichia coli WM6242; with or without IPTG induction): insensitive
